Test results: ChEMBL document CHEMBL1201862, “PubChem BioAssay data set” (2004)
One block for each compound: values may come before it. Activity calls are given as the source filed them.

Tests used:
[1] = A549 cell cytotoxicity, dose response, cytotoxicity control, 24 h, CellTiter-Glo luminescence, cherry-picks (AID 1053115); assay type: functional, cell-based; settings: A549, 24 h
[2] = inhibitors of Vif binding to APOBEC3G peptide, primary screen, biochemical, TR-FRET, GST-Vif 1-94, biotin-A3G peptide, dose response retest (AID 1117319); assay type: functional;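 further: TR-FRET signal of purified GST-Vif binding a biotinylated A3G peptide; inhibitors lower the FRET signal by blocking Vif and A3G binding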
[3] = biological target: DNA damage-inducible transcript 3 protein (Mus musculus, UniProt P35639); assay type: functional, Cricetulus griseus
[4] = Vero cell cytotoxicity, dose response, cytotoxicity control for Vif-APOBEC3G degradation inhibitor project, Vero cells (AID 1117358); assay type: functional; settings: Human immunodeficiency virus 1, Vero
HT-1080 = assay: cytotoxicity in HT1080 fibrosarcoma cells, cell-based, fluorescence readout (AID 620); assay type: functional; settings: Homo sapiens
[5] = P. falciparum Dd2 growth inhibitors, dose response, SYBR Green, cherry-picked samples (AID 1159567); assay type: functional, cell-based
[6] = P. falciparum ATP4 D1247Y mutant growth inhibitors, dose response, NITD609-resistant line, SYBR Green, dry powder (AID 1159571); assay type: functional, cell-based;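 further: parasites synchronized at ring stage by sorbitol before testing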
[7] = P. falciparum Dd2 growth inhibitors, dose response, SYBR Green, dry powder samples (AID 1159566); assay type: functional, cell-based;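 further: potency for growth inhibition with lower SYBR green DNA signal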
[8] = HepG2 cell cytotoxicity, dose response, cytotoxicity control, cherry-picked samples (AID 1159577); assay type: functional, cell-based
[9] = P. falciparum 3D7-ScDHODH growth inhibitors, dose response, SYBR Green, dry powder samples (AID 1159570); assay type: functional, cell-based;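 further: parasite growth measured after 72 hours of compound exposure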
[10] = HepG2 cell cytotoxicity, dose response, cytotoxicity control, plate reader, dry powder samples (AID 1159569); assay type: functional, cell-based;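 further: inhibitor potency with signal falling toward the positive control level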
[11] = biological target: E3 ubiquitin-protein ligase Mdm2 (Homo sapiens, UniProt Q00987); assay: enhancers of MDM2-luciferase reporter signal, concentration-effect titration, project on inhibitors of MDM2 ubiquitin ligase, cellular assay, luminescent readout, 384-well plate format (AID 1394); assay type: functional;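 further: MDM2 E3 inhibitors raise luminescence so EC50 is for signal enhancement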
[12] = P. falciparum Dd2 growth inhibitors, dose response, SYBR Green, dry powder samples, set 9 (AID 1159568); assay type: functional, cell-based
[13] = inhibitors of intracellular T. cruzi replication, confirmation, NIH3T3 host cells, beta-gal luminescence (AID 2044); assay type: functional, cell-based;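 further: intracellular parasites grown in NIH/3T3 mouse fibroblasts as host cells; luminescent beta-galactosidase reporter signal from transgenic T. cruzi replicating inside host cells; inhibitors lower the luminescence signal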
[14] = cytotoxicity toward NIH3T3 fibroblasts, dose response, counter-screen, cell-based, ATP luminescence, mouse fibroblasts (AID 2010); assay type: functional;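 further: cells exposed to compound for about 90 hours before reading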
[15] = THP-1 cell cytotoxicity, dose response, cytotoxicity control for Vif-APOBEC3G degradation inhibitor project, THP-1 cells (AID 1117359); assay type: functional; settings: Human immunodeficiency virus 1, THP-1
[16] = Jurkat T cell cytotoxicity, dose response, cytotoxicity control for P. falciparum gametocyte viability project, luminescence (AID 1117277); assay type: functional, cell-based;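 further: potency reflects loss of cellular ATP meaning fewer viable cells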
[17] = P. falciparum late gametocyte killing, dose response, luminescence (AID 1117278); assay type: functional, cell-based;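 further: gametocytes exposed to compound for 24 hours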
[18] = cytotoxicity toward HT-29 cells – cell-based, CellTiter-Glo luminescence, IC50, dose response (AID 1117330); assay type: functional
[19] = Concentration-dependent survival of SW480 colon cancer line, luminescence detection with CellTiter-Glo, half-maximal inhibitory concentration (AID 1117338); assay type: functional
[20] = cytotoxicity toward HCT116 cells – cell-based, CellTiter-Glo luminescence, IC50, dose response (AID 1117332); assay type: functional; settings: HCT-116
[21] = HCT116 cell viability decrease, GSK3B pretreatment – CellTiter-Glo, IC50, dose response (AID 1117339); assay type: functional; settings: HCT-116
[22] = RKO cell viability reduction, dose response, CellTiter-Glo luminescence (AID 1117322); assay type: functional
[23] = CellTiter-Glo luminescent dose response of DLD-1 viability loss (AID 1117352); assay type: functional
[24] = cytotoxicity toward Colo320 cells – cell-based, CellTiter-Glo luminescence, IC50, dose response (AID 1117334); assay type: functional; settings: COLO 320
[25] = SNU-C1 cell viability reduction, dose response, CellTiter-Glo luminescence (AID 1117323); assay type: functional, cell-based

E3 ubiquitin-protein ligase Mdm2, sequence (Q00987 whole entry): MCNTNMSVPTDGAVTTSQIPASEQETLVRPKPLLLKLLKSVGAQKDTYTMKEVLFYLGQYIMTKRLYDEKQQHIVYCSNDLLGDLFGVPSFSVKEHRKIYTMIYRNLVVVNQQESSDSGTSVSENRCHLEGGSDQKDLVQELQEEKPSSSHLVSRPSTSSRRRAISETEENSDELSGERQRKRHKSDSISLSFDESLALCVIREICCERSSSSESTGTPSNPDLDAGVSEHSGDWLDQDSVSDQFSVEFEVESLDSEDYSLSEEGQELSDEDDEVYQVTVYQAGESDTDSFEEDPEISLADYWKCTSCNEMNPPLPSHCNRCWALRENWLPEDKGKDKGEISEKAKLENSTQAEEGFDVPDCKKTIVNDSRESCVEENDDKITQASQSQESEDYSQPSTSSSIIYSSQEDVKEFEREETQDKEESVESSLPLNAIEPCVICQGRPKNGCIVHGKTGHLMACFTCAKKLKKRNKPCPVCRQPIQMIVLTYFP
DNA damage-inducible transcript 3 protein, sequence (P35639 whole entry): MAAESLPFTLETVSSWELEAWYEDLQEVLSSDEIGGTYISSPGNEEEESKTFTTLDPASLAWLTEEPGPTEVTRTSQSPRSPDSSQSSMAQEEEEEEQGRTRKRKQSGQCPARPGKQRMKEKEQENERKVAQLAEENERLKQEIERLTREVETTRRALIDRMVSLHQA

SMILES: C[C@@H](O)C#Cc1ccc2c(c1)O[C@@H](CN(C)Cc1ccccc1)[C@@H](C)CN([C@@H](C)CO)S2(=O)=O
AC50 [1]: > 60 µM (inactive)

IC50 [2]: > 100 µM (active)
SMILES: Oc1ccc(Cl)cc1-c1cc(-c2ccccc2)[nH]n1
Absolute IC50 (CHOP) [3]: 10 µM | CC50 [4]: > 40 µM (active)

SMILES: Cc1ccc(NC2=Nc3ccccc3CC2)cc1
EC50 (HT-1080): > 50 µM (not active)

SMILES: COc1ccc(C#Cc2ccc([C@@H]3[C@H](CO)N4CCCCN(C(=O)Nc5ccccc5F)C[C@@H]34)cc2)cc1
AC50 [5]: 1.42 µM (active) | AC50 [6]: 771 nM (active) | AC50 [7]: 898 nM (active) | AC50 [8]: 9.73 µM (active) | AC50 [9]: 1.02 µM (active) | AC50 [10]: 8.16 µM (active)

EC50 [11]: 78.3 µM (not active)
SMILES: CC1=C(C(=O)NC(C)CCc2ccccc2)C2(CCC(C)CC2)OC1=O (configuration not stated)

SMILES: COc1ccc(C#Cc2ccc([C@@H]3[C@@H](CO)N4CCCCN(C(=O)Nc5cccc(F)c5)C[C@H]34)cc2)cc1
AC50 [5]: 1.66 µM (active) | AC50 [6]: 698 nM (active) | AC50 [7]: 83 nM (active) | AC50 [9]: 0.738 µM (active) | AC50 [12]: 1.35 µM (active) | AC50 [10]: 7.51 µM (active)

SMILES: O=C(NCC[C@H]1CC[C@H](NC(=O)c2ccccc2F)[C@@H](CO)O1)c1cnccn1
AC50 [12]: 11 µM (active)

SMILES: COc1cccc(/C=N/NC(N)=S)c1OCc1ccccc1Cl
EC50 [13]: 1.18 µM (active) | EC50 [14]: > 30 µM (not active) | CC50 [15]: > 40 µM (active)

SMILES: Cc1nc2nc(C)c(CCC(=O)NC3CCCCC3)c(C)n2n1
IC50 [16]: > 83.4 µM (inactive) | IC50 [17]: > 109 µM (inactive)

SMILES: Cc1cccc(Nc2cc(Cl)nc(SCC(=O)O)n2)c1C [PIRINIXIC ACID]
IC50 [18]: > 20 µM (inactive) | IC50 [19]: > 20 µM (inactive) | IC50 [20]: > 20 µM (inactive) | IC50 [21]: > 20 µM (inactive) | IC50 [22]: > 20 µM (inactive) | IC50 [23]: > 20 µM (inactive) | IC50 [24]: > 20 µM (inactive) | IC50 [25]: > 20 µM (inactive)
